Test results reported in paper PMC6731241, “L-Type Amino Acid Transporter 1 (LAT1/Lat1)-Utilizing Prodrugs Can Improve the Delivery of Drugs into Neurons, Astrocytes and Microglia” (Scientific Reports, 2019).
Where two headings read alike, the source gives them in different places.

Columns and labels:
[1] = design: method as in PMID 28662899, PMID 27266990; details: unspecific brain tissue binding, fraction unbound (fu,brain), equilibrium dialysis; cited from earlier work
[2] = system: immortalized microglia (BV2); assay: Cellular uptake of compounds into immortalized microglia (BV2); assay type: cell-based, mouse; details: 25, 50 and 100 µM (Fig. 4c)
Description: (§1) Pre-incubation was done with 500 μL of pre-warmed HBSS at 37 °C for 10 min before adding substrates (250 μL in HBSS) for the uptake experiments. The ability of brain cell to carry a known LAT1/Lat1 substrate, the cells were incubated with [^14C]-L-leucine at 37 °C for 2.5 min in uptake buffer (HBSS, 250 μL) containing 0.76–75 μM (0.25 mCi/ml) of [^14C]-L-leucine (PerkinElmer, Waltham, MA, USA).

[3] = system: primary cortical neurons and immortalized microglia; assay: Cellular uptake of compounds, neurons and microglia (joint range); assay type: cell-based, mouse; details: for Uptake of prodrug relative to parent drug 2: primary cortical neurons and immortalized microglia
Description: as §1
(§2) The protein concentrations on each plate were determined as a mean of three samples by Bio-Rad Protein Assay, based on the Bradford dye-binding method, using bovine serum albumin (BSA) as a standard protein and measuring the absorbance (595 nm) by multiplate reader (EnVision, Perkin Elmer, Inc., Waltham, MA, USA).

mouse primary neurons = assay: Cellular uptake of compounds into primary neurons; assay type: cell-based; details: 25, 50 and 100 µM (Fig. 4c)
Description: as §1

[4] = Bioconversion in primary astrocytes homogenate; assay type: in vitro ADME, mouse; details: for half-life at 400 µM: mouse, pH 7.4, primary astrocytes homogenate, 37 °C
Description: (§3) The rates of bioconversion of all studied prodrugs in immortalized BV2 microglia and primary astrocytes homogenates were determined at 37 °C. The cell homogenates were prepared by homogenizing 10 × 10^6 cells/ml in HBSS (pH 7.4) with SoniPerp 150 Plus disintegrator (MSE Ltd., London, UK) for 2 s × 3. The incubation mixtures were prepared by mixing cell homogenate (final protein concentration 1.0 mg/mL) with HBSS buffer and 10 mM prodrug stock solution in DMSO (the final concentration of prodrugs was 400 µM and the DMSO concentration […]). The mixture was then incubated for 5 h and the samples (50 µL) were withdrawn at appropriate intervals. The proteins in the samples were precipitated with ice-cold acetonitrile (150 µL) and the samples were centrifuged for 5 min at 12 000 × g at room temperature. The supernatants were collected and analyzed by the LC-MS methods as reported earlier[19],[24],[26]. In blank reactions (chemical stability), the cell homogenate was replaced with same volume of buffer. The pseudo-first-order half-lives (t½) for the rates of bioconversion of the prodrugs were calculated from the slope of the linear portion of the plotted logarithm of remaining prodrug concentration versus time.

[5] = cited from earlier work
[6] = cited from earlier work; remark: listed apart in the source
[7] = Bioconversion in immortalized BV2 microglia homogenate; assay type: in vitro ADME, mouse; details: for half-life at 400 µM: mouse, pH 7.4, 37 °C
Description: as §3

mouse primary astrocytes = assay: Cellular uptake of compounds into primary astrocytes; assay type: cell-based
Description: as §1, §2

Lat1 [8] = biological target: T1, Lat1 (Mus musculus, UniProt Q9Z127); assay: Competitive prodrug uptake with LAT1/Lat1-inhibitor (KMH-233), all cell types; assay type: cell-based; design: neurons and microglia also express functional Lat1 on their cell surface; endogenous in cells; host or cells: mouse primary cortical neurons, mouse primary astrocytes, immortalized mouse microglia (BV2); details: 100 µM KMH-233, range over all cell types
Description: The competitive uptake in the presence of LAT1/Lat1-inhibitor (KMH-233) was carried out as described above with HBSS buffer solution containing 1–10 µM of the studied compounds. The cells were pre-incubated with 100 µM LAT1/Lat1-inhibitor for 10 min and the incubation mixture was removed before adding the studied prodrug and LAT1/Lat1-inhibitor on the cells. The competitive uptake (30 min) with the inhibitor was then carried out as the normal uptake described above. The amounts of studied compounds were analyzed by the LC-MS method and calculated from the spiked standard curve and normalized with the protein concentrations.

[9] = system: immortalized microglia (BV2); assay: Cell viability of immortalized microglia (resazurin); assay type: cell-based; details: 100 µM, 24 h
Description: 2. Effects of LAT1-Utilizing Prodrugs and Their Parent Drugs on the Cell Viability of Immortalized
Immortalized microglia (BV2) were seeded at the density of 2 × 10^4 cells/well onto collagen-coated 96-well plates. The cells were used for the proliferation experiments one day after seeding. A concentration of 100 µM of studied compounds were added into the growth medium and incubated for 24 h, after which the cell viability was determined by resazurin cell proliferation kit (Sigma, St.
Louis, MO, USA). The samples were measured fluorometrically by monitoring the increase in fluorescence at a wavelength of 590 nm using an excitation wavelength of 560 nm (EnVision, Perkin Elmer, Inc., Waltham, MA, USA), which is directly proportional to aerobic respiration and cellular metabolism of cells. The cell death was confirmed in the decrease of cell amount by visualizing the […]
Figure S2. The cell viability of immortalized microglia (BV2) after 24 h incubation of 100 µM LAT1-utilizing prodrugs (PD1-PD6) and their parent drugs (D1-D3) presented as percentages (%) compared to the untreated cells (ctrl) (mean ± SD, n=3-6). An asterisk denotes a statistically significant difference from the respective control (** P < 0.01, * P < 0.05 one-way ANOVA, followed by […]

Lat1 [10] = biological target: T1, Lat1; assay: [14C]-L-Leu uptake kinetics in immortalized microglia (BV2); details: 0.76–75 µM, 2.5 min
Lat1 [11] = biological target: T1, Lat1; assay: [14C]-L-Leu uptake kinetics in primary astrocytes; details: 0.76–75 µM, 2.5 min
LAT1/Lat1 = system: LAT1/Lat1; design: method as in PMID 11557028, PMID 15567481, PMID 19890975; details: human LAT1 transfected cells or cancer cells expressing hLAT1 or rodent Lat1; read-out: Affinity (Km), previously reported values; cited from earlier work
Lat1 [12] = biological target: T1, Lat1; assay: [14C]-L-Leu uptake kinetics in primary cortical neurons; details: 0.76–75 µM, 2.5 min
Lat1 [13] = biological target: T1, Lat1; assay: [14C]-L-Leu uptake kinetics, primary cortical neurons and immortalized microglia (joint range); details: range over primary cortical neurons and immortalized microglia
[14] = 400 µM, read-out: Half-life of bioconversion

T1 sequence (Q9Z127 whole entry): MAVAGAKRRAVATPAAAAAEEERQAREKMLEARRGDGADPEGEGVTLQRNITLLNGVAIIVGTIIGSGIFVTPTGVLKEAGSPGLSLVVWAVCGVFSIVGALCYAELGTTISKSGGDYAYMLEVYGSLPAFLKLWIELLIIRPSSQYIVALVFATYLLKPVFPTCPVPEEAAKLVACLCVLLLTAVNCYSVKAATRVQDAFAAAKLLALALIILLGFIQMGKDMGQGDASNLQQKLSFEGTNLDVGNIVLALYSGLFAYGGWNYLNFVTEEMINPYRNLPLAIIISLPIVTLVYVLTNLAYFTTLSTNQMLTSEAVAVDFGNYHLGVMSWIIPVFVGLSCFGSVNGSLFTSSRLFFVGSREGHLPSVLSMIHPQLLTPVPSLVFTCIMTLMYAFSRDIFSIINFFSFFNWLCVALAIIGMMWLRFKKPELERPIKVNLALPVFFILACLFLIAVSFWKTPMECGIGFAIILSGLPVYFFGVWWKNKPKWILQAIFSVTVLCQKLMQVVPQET
T1 sequence (P10852 whole entry partner): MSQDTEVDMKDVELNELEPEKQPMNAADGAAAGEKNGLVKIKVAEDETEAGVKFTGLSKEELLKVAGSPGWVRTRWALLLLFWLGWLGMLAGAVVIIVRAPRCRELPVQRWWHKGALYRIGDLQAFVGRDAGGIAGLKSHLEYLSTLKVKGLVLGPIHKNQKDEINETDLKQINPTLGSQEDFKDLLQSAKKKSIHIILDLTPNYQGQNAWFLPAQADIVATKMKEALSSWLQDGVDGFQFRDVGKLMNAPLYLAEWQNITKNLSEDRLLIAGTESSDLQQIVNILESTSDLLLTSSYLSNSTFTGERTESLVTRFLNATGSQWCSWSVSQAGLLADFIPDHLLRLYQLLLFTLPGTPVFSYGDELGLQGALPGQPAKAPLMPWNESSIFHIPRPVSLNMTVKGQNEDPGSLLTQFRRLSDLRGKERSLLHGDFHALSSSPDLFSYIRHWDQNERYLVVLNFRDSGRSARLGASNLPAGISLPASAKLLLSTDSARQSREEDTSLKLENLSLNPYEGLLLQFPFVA

In the case of O=C1OCc2cc(-c3ccc(-c4ccc(CO)cc4)s3)ccc21 [D1, reference compound], the “Brain Protein Binding fu (%)” value [1] is given as 0.03%.
With COc1cc(/C=C/C(=O)O)ccc1O [D3, ferulic acid, reference compound] the Cell uptake [2] was “below LLOQ”, the “Amount in cells (under the detection limit)” value ([3]; neurons and microglia) was < 1.0 nM and the Cell uptake (mouse primary neurons) was “below LLOQ”. For the same compound, the “Brain Protein Binding fu (%)” value [1] was 26.0%.
For N[C@H](Cc1cccc(C(=O)OCc2ccc(-c3ccc(-c4ccc5c(c4)COC5=O)s3)cc2)c1)C(=O)O [PD1], the half-life at 400 µM [4, 14] is given as 5.81 ± 0.402 h, the Half-life in vivo ([5]; brain) is given as 1.4 h and the Half-life in vivo ([5]; liver) is given as 1.25 h. For the same compound, the Half-life in vivo ([5]; plasma) was 1.57 h, the “Uptake of prodrug relative to its parent drug” value ([3]; neurons and microglia) was 10–17 and the “Brain Protein Binding fu (%)” value [1] was 1.4%. The “Half-life in brain S9 subcellular fraction” value ([6]; in vitro, listed as Prodrug 1) was “approximately 4.7 h”, the “Half-life in brain S9 subcellular fraction” value ([6]; in vitro, listed as prodrug 1) was “approximately 5 h” and the half-life at 400 µM ([7]; tissue homogenate, immortalized microglia homogenate, 400 µM, read-out: Half-life of bioconversion) was 3.96 ± 0.738 h.
For CC(C(=O)Nc1cccc(C[C@H](N)C(=O)O)c1)c1cccc(C(=O)c2ccccc2)c1 (some centres unmarked) [PD2], the “Stability in cell homogenate” value ([4]; astrocytes homogenate) is given as “completely stable”, the “Half-life in vivo (release of ketoprofen)” value ([5]; brain) is given as 0.45 h and the “Half-life in vivo (release of ketoprofen)” value ([5]; liver) is given as 0.383 h. For the same compound, the “Half-life in vivo (release of ketoprofen)” value ([5]; plasma) was 0.267 h, the “Uptake of prodrug relative to parent drug 2” value [3] was 1–7 times and the “Uptake of prodrug relative to ketoprofen” value (mouse primary astrocytes) was 10–80 times. The “Brain Protein Binding fu (%)” value [1] was 6.2%, the “Stability in brain S9 subcellular fraction” value ([6]; in vitro media lack co-factors) was “stable and do not release ketoprofen at all” and the “Stability in cell homogenate” value ([7]; microglia homogenate) was “completely stable”.
With CC(C(=O)Oc1cccc(C[C@H](N)C(=O)O)c1)c1cccc(C(=O)c2ccccc2)c1 (some centres unmarked) [PD3] the “Inhibition of prodrug uptake by LAT1/Lat1-inhibitor” value (Lat1 [8]; 1 µM prodrug) was 47.41–58.32%, the half-life at 400 µM [4, 14] was 4.71 ± 0.263 h and the “Uptake of prodrug relative to parent drug 2” value [3] was 1–7 times. The “Uptake of prodrug relative to ketoprofen” value (mouse primary astrocytes) was 10–80 times, the “Half-life in brain S9 subcellular fraction” value ([6]; approximate) was ~1 h and the “t½ in mouse brain S9 subcellular fraction” value ([6]; conversion to ketoprofen) was 0.866 ± 0.0387 h. For the same compound, the half-life at 400 µM ([7]; immortalized BV2 microglia homogenate, immortalized microglia homogenate, 400 µM, read-out: Half-life of bioconversion) was 3.35 ± 0.224 h.
For COc1cc(/C=C/C(=O)NCc2cccc(C[C@@H](N)C(=O)O)c2)ccc1O [PD4], the “Effect on cell viability” value [9] was “slightly increased the cell proliferation”, the “Inhibition of prodrug uptake by LAT1/Lat1-inhibitor” value (Lat1 [8]; 10 µM prodrug) was 83.24–85.23% and the “Stability in cell homogenate” value ([4]; astrocytes homogenate) was “stable”. The “Brain Protein Binding fu (%)” value [1] was 13.0% and the “Stability in cell homogenate” value ([7]; microglia homogenate) was “stable”.
For COc1cc(/C=C/C(=O)Nc2cccc(C[C@H](N)C(=O)O)c2)ccc1O [PD5], the “Effect on cell viability” value [9] is given as “slightly increased the cell proliferation”, the “Stability in cell homogenate” value ([4]; astrocytes homogenate) is given as “stable” and the “Brain Protein Binding fu (%)” value [1] is given as 7.0%. The “Stability in cell homogenate” value ([7]; microglia homogenate) was “stable”.
In the case of COc1cc(/C=C/C(=O)Oc2cccc(C[C@H](N)C(=O)O)c2)ccc1O [PD6], the half-life at 400 µM ([4]; astrocytes homogenate, read-out: Estimated half-life of bioconversion) is listed as > 9 h, the “Intact prodrug detected after 5 h” value ([6]; brain S9 subcellular fraction) is listed as 70% and the half-life at 400 µM ([7]; tissue homogenate, microglia homogenate, read-out: Estimated half-life of bioconversion) is listed as > 9 h.
Compound CC(C)C[C@H](N)C(=O)O [[^14C]-L-Leu, L-leucine] has a Vmax (Lat1 [10]) of 0.84 ± 0.12 nmol/min/mg protein, a Km (Lat1 [11]) of 65.9 ± 14.3 µM and a Vmax (Lat1 [11]) of 2.92 ± 0.36 nmol/min/mg protein. For the same compound, the Km (LAT1/Lat1) was 9 to 52 µM, the Km (Lat1 [12]) was 146 ± 47.3 µM and the Vmax (Lat1 [12]) was 1.90 ± 0.44 nmol/min/mg protein. The Km (Lat1 [13]) was 85.8 to 146 µM and the Vmax (Lat1 [13]) was 0.84–1.90 nmol/min/mg of protein.
